Target: cathepsin B (Homo sapiens, UniProt P07858)
Assay: Cathepsin B inhibition assay
Type: biochemical

IC50: 7.5 µM
Structure (SMILES): CC(=O)N[C@@H](CC(C)C)C(=O)N[C@@H](CC(C)C)C(=O)N[C@H](C=O)CCCNC(=N)N [Leupeptin]

Source: PMC8695591 (RSC Advances, 2021)
